Measurements from ChEMBL document CHEMBL3865840, “Minimizing CYP2C9 Inhibition of Exposed-Pyridine NAMPT (Nicotinamide Phosphoribosyltransferase) Inhibitors” (J Med Chem, 2016).
pIC50: −log10 of the molar value.

What was measured:
Cytochrome P450 2C9 = Cytochrome P450 2C9 (Homo sapiens, UniProt P11712)
[1] = Octanol-aqueous phosphate buffer distribution coefficient, log D of the compound at pH 7.4 after 1 hr by LC/MS/MS analysis; type: physicochemical
[2] = Apparent permeability from apical to basolateral side in MDCK cells at 10 uM by LC/MS/MS analysis; type: ADME, cell-based, Canis lupus familiaris; details: dog
[3] = Apparent permeability from basolateral to apical side in MDCK cells at 10 uM by LC/MS/MS analysis; type: ADME, cell-based, Canis lupus familiaris; details: dog
Cytochrome P450 3A4 [4] = molecular target: T1, Cytochrome P450 3A4 (Homo sapiens, UniProt P08684); assay: Time dependent inhibition of CYP3A4 in human liver microsomes assessed as substrate AUC shift using testosterone as substrate; type: ADME; set-up: scale not given: the % may be the effect or the level left
T1 sequence (P08684 whole entry): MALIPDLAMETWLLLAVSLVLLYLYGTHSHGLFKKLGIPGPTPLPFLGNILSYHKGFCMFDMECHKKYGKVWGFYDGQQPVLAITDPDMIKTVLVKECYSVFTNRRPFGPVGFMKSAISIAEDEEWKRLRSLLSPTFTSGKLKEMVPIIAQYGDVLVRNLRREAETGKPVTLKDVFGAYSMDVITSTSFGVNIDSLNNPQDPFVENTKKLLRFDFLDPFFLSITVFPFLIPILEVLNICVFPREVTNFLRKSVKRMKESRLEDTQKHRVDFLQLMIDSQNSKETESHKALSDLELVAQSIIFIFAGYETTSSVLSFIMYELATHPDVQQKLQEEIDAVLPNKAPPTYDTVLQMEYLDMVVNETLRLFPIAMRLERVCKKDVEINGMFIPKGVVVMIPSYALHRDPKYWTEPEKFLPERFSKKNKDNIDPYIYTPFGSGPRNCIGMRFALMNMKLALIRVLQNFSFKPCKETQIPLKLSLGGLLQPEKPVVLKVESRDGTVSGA

Cytochrome P450 3A4 [5] = molecular target: T1, Cytochrome P450 3A4; assay: Time dependent inhibition of CYP3A4 in human liver microsomes assessed as substrate AUC shift using midazolam as substrate; type: ADME; set-up: scale not given: the % may be the effect or the level left
Cytochrome P450 2D6 = Cytochrome P450 2D6 (Homo sapiens, UniProt P10635)
Chain of Cytochrome P450 2D6 (P10635 whole entry): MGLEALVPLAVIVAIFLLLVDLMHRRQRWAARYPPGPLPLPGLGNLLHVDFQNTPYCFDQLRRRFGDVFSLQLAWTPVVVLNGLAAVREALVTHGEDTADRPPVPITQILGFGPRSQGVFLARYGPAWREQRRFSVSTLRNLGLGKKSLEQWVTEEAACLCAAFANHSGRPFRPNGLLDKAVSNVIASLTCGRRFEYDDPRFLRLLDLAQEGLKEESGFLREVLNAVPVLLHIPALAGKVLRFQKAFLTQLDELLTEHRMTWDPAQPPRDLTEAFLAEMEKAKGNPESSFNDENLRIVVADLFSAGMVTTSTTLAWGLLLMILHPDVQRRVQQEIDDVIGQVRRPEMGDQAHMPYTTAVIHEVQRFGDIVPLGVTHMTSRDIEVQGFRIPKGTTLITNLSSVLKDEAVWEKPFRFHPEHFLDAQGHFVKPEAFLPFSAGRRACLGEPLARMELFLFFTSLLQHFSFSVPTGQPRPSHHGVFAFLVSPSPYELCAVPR

Cytochrome P450 2C19 = Cytochrome P450 2C19 (Homo sapiens, UniProt P33261)
Chain of Cytochrome P450 2C19 (P33261 whole entry): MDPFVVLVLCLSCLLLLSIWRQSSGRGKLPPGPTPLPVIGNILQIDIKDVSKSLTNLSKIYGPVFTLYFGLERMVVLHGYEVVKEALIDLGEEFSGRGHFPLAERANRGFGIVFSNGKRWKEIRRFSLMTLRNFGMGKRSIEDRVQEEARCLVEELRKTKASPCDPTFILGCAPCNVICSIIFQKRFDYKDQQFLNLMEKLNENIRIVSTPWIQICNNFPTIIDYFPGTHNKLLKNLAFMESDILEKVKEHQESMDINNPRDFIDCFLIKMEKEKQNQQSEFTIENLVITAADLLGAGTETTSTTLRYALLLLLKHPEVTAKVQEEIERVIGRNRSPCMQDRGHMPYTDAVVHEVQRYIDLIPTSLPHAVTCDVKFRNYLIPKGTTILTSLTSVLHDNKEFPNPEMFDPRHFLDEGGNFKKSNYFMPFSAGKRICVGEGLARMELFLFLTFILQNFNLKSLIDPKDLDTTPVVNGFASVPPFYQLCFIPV

Cytochrome P450 1A2 = molecular target: T2, Cytochrome P450 1A2 (Homo sapiens, UniProt P05177)
T2 sequence (P05177 whole entry): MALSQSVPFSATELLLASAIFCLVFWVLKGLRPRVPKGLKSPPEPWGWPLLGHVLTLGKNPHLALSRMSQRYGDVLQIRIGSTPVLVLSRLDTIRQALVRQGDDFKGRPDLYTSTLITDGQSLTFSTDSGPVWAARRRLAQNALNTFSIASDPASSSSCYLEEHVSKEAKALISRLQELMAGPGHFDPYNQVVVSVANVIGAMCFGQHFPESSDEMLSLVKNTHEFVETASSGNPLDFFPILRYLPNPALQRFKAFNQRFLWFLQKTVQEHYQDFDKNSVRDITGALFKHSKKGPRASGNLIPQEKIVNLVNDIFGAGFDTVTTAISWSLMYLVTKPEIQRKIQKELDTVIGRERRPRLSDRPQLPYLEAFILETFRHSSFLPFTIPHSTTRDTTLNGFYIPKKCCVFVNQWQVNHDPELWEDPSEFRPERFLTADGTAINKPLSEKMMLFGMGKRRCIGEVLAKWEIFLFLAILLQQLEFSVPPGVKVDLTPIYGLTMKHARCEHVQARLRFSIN

Chain of Cytochrome P450 2C9 (P11712 whole entry): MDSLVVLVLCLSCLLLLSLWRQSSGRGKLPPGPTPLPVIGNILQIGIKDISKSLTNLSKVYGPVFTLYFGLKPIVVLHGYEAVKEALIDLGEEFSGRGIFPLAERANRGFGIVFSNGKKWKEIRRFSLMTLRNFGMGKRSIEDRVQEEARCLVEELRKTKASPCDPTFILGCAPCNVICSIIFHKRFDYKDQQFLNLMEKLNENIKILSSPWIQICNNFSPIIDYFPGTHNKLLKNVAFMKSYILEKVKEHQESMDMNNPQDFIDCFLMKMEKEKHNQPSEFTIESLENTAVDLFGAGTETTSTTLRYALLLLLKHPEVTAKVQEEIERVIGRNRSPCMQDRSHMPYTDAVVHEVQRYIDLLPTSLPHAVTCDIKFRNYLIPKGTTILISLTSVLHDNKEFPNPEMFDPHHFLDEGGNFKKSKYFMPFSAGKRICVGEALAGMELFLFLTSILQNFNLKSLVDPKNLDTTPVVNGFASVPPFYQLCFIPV

Row | SMILES | pIC50 (Cytochrome P450 2C9) | Papp A→B at 10 µM [2] [×10⁻⁶ cm/s] | Papp B→A at 10 µM [3] [×10⁻⁶ cm/s] | further results
1 | CC(C)(C)OC(=O)N1CCC(CCNC(=O)c2cc3cnccc3[nH]2)CC1 | < 5.00 |  |  | 
2 | CN(C)C(=O)c1cccc(COc2ccc(CNC(=O)c3cc4cnccc4[nH]3)cc2)c1 | 6.40 |  |  | logD at 1 h [1]: 2.5
3 | CC1(OC(=O)N2CCC3(CC2)CC3CNC(=O)N2Cc3ccncc3C2)COC1 (racemic) | < 5.00 | 11 | 16 | 
4 | NS(=O)(=O)c1ccc(CNC(=O)c2cc3cnccc3[nH]2)cc1 | 6.47 |  |  | logD at 1 h [1]: 0.6
5 | CC(C)(C)OC(=O)N1CCC2(CC1)CC2CNC(=O)c1cc2ccncc2s1 (racemic) | 5.14 |  |  | 
6 | CN1CCC(c2ccc(C(=O)N3CCC4(CC3)CC4CNC(=O)N3Cc4ccncc4C3)cc2)CC1 (racemic) | < 5.00 | 0.2 | 1 | 
7 | CC(C)CC(=O)N1CCC2(CC1)CC2CNC(=O)N1Cc2ccncc2C1 (racemic) | < 5.00 | 7.3 | 14 | 
8 | Nc1cc2cc(C(=O)NCc3ccc(S(=O)(=O)c4ccccc4)cc3)oc2cn1 | 5.41 |  |  | 
9 | Nc1ccc(CNC(=O)Nc2ccc(S(=O)(=O)c3ccccc3)cc2)cn1 |  | 3 | 5.5 | logD at 1 h [1]: 2.7; Activity (Cytochrome P450 3A4 [4]): 45%; Activity (Cytochrome P450 3A4 [5]): 34%
10 | CC1(O)CC(CC(=O)N2CCC3(CC2)CC3CNC(=O)N2Cc3ccncc3C2)C1 (racemic) |  | 0.2 | 1 | 
11 | CC(C)(C)NC(=O)N1CCC2(CC1)CC2CNC(=O)N1Cc2ccncc2C1 (racemic) | < 5.00 |  |  | 
12 | CC(C)(C)CC(=O)N1CCC2(CC1)CC2CNC(=O)N1Cc2ccncc2C1 (racemic) | < 5.00 | 9.2 | 13 | 
13 | Cc1nn(C)cc1C(=O)N1CCC2(CC1)CC2CNC(=O)N1Cc2ccncc2C1 (racemic) |  | 0.2 | 1.1 | 
14 | Cc1ccc(CNC(=O)Nc2ccc(S(=O)(=O)c3ccccc3)cc2)cn1 |  |  |  | logD at 1 h [1]: 2.4
15 | CC(C)(C)OC(=O)N1CCC2(CCC(CNC(=O)c3cc4cnccc4[nH]3)OC2)CC1 (racemic) | < 5.00 |  |  | 
16 | CC(C)CNC(=O)c1cc2cnccc2[nH]1 | < 5.00 |  |  | logD at 1 h [1]: 1.7
17 | O=C(NCc1ccc(C(=O)N2CCCC2)cc1)c1cc2cnccc2[nH]1 | 6.35 |  |  | logD at 1 h [1]: 1.6
18 | CC(C)(C)OC(=O)N1CCCC(CCNC(=O)c2cc3cnccc3[nH]2)C1 (racemic) | 5.47 |  |  | 
19 | O=C(/C=C/c1cccnc1)NCCCCC1CCN(C(=O)c2ccccc2)CC1 [DAPORINAD] | 5.44 |  |  | pIC50 (Cytochrome P450 2D6): < 5.00; pIC50 (Cytochrome P450 2C19): < 5.00
20 | O=C(NCC1CC12CCN(CCc1ccccc1)CC2)N1Cc2ccncc2C1 (racemic) | < 5.00 |  |  | 
21 | Nc1cc2[nH]c(C(=O)NCc3ccc(S(=O)(=O)c4cc(F)cc(F)c4)cc3)cc2cn1 | < 5.00 |  |  | Activity (Cytochrome P450 3A4 [4]): 69%; Activity (Cytochrome P450 3A4 [5]): 83%
22 | Cc1nc(C)c(C(=O)N2CCC3(CC2)CC3CNC(=O)N2Cc3ccncc3C2)s1 (racemic) |  | 1.4 | 11 | 
23 | O=C(NCc1cccnc1)Nc1ccc(S(=O)(=O)c2ccccc2)cc1 |  | 3.1 | 11 | logD at 1 h [1]: 2.7
24 | O=C(NCc1ccccc1)c1cc2cnccc2[nH]1 | < 5.00 |  |  | logD at 1 h [1]: 2.2
25 | O=C(NCC1CCCCC1)c1cc2cnccc2[nH]1 | < 5.00 |  |  | logD at 1 h [1]: 3.1
26 | CC(C)(C)OC(=O)N1CCC2(CC1)CC2CNC(=O)c1cc2cnccc2[nH]1 (racemic) | < 5.00 | 15 | 14 | 

Row | SMILES | pIC50 (Cytochrome P450 2C9) | Papp A→B at 10 µM [2] [×10⁻⁶ cm/s] | Papp B→A at 10 µM [3] [×10⁻⁶ cm/s] | further results
27 | [2H]C1([2H])c2ccncc2C([2H])([2H])N1C(=O)NCC1CC12CCN(C(=O)OC1(C)COC1)CC2 (racemic) | < 5.00 |  |  | 
28 | O=C(CCC(F)(F)F)N1CCC2(CC1)CC2CNC(=O)N1Cc2ccncc2C1 (racemic) | < 5.00 |  |  | 
29 | Cc1nn(C)c(C)c1C(=O)N1CCC2(CC1)CC2CNC(=O)N1Cc2ccncc2C1 (racemic) | < 5.00 | 0.2 | 1.9 | 
30 | N#CN=C(NCCCCCCOc1ccc(Cl)cc1)Nc1ccncc1 [CHS-828] |  |  |  | pIC50 (Cytochrome P450 1A2): < 5.00; pIC50 (Cytochrome P450 2C19): 6.20
31 | CC(C)(C)OC(=O)N1CCC2(CC1)CC2CNC(=O)c1cnc2nccn2c1 (racemic) | < 5.00 |  |  | 
32 | CC1(CC(=O)N2CCC3(CC2)CC3CNC(=O)N2Cc3ccncc3C2)COC1 (racemic) | < 5.00 | 1.4 | 4 | 
33 | O=C(CCC1CCOCC1)N1CCC2(CC1)CC2CNC(=O)N1Cc2ccncc2C1 (racemic) | < 5.00 | 1.6 | 11 | 
34 | O=C(NCc1ccc([S@@+]([O-])c2cc(F)cc(F)c2)cn1)c1cc2ccncc2o1 |  | 21 | 9 | logD at 1 h [1]: 2
35 | O=C(NCC1CC12CCN(C(=O)c1ccccc1)CC2)N1Cc2ccncc2C1 (racemic) | < 5.00 | 7.9 | 19 | 
36 | CC(C)OC(=O)N1CCC2(CC1)CC2CNC(=O)N1Cc2ccncc2C1 (racemic) | < 5.00 | 13 | 14 | 
37 | CC1(OC(=O)N2CCC3(CC2)C[C@H]3CNC(=O)N2Cc3ccncc3C2)COC1 |  | 11 | 15 | 
38 | CC1(OC(=O)N2CCC3(CC2)CC3CNC(=O)N2Cc3ccncc3C2)CCC1 (racemic) | < 5.00 | 15 | 12 | 
39 | CCOC(=O)N1CCC2(CC1)CC2CNC(=O)N1Cc2ccncc2C1 (racemic) | < 5.00 |  |  | 
40 | O=C(NCc1ccc(NS(=O)(=O)C2CCCC2)cc1)c1cc2cnccc2[nH]1 | 6.44 |  |  | logD at 1 h [1]: 2.5
41 | CS(=O)(=O)c1ccc(CNC(=O)c2cc3cnccc3[nH]2)cc1 | 6.70 |  |  | logD at 1 h [1]: 0.8
42 | O=C(NCc1ccc(S(=O)(=O)c2cc(F)cc(F)c2)cn1)c1cc2ccncc2o1 |  |  |  | logD at 1 h [1]: 2.6
43 | CC(C)(C)OC(=O)N1CCC2(CC1)CC2CNC(=O)c1cc2ccncc2o1 (racemic) | < 5.00 | 16 | 15 | 
44 | Cc1c(C(=O)N2CCC3(CC2)CC3CNC(=O)N2Cc3ccncc3C2)cnn1C (racemic) |  | 0.3 | 2.6 | 
45 | O=C(CC1CCOCC1)N1CCC2(CC1)CC2CNC(=O)N1Cc2ccncc2C1 (racemic) |  | 1.4 | 7 | 
46 | Cc1nc(C)c(C(=O)N2CCC3(CC2)CC3CNC(=O)N2Cc3ccncc3C2)o1 (racemic) |  | 1.4 | 9 | 
47 | O=C(NCc1cccnc1)Nc1ccc(S(=O)(=O)N2CCC3(CCNC3)CC2)cc1 |  |  | 0.43 | logD at 1 h [1]: < -0.5
48 | O=C(NCc1ccc(S(=O)(=O)C2CCCCC2)cc1)N1Cc2ccncc2C1 |  |  |  | logD at 1 h [1]: 2
49 | CC1(CC(=O)N2CCC3(CC2)CC3CNC(=O)N2Cc3ccncc3C2)CCOCC1 (racemic) | < 5.00 | 1 | 9.1 | 
50 | Nc1cc2c(cn1)CN(C(=O)NCc1ccc(S(=O)(=O)c3ccccc3)cc1)C2 | < 5.00 |  |  | 
51 | Cc1ccncc1C(=O)N1CCC2(CC1)CC2CNC(=O)N1Cc2ccncc2C1 (racemic) |  | 0.3 | 2.7 | 
